We go through one molecule from publication PMC5896266, “Development of Matrix Metalloproteinase-2 Inhibitors for Cardioprotection” (Frontiers in Pharmacology, 2018).

In assay [1] the test system is isolated rat hearts. Put plainly: Myocardial infarct size in isolated rat heart, global ischemia/reperfusion (Langendorff). The note with it: 1 μM; 30 min global ischemia, 120 min reperfusion; vs vehicle. How it is done:
Our experiment conforms to the National Institutes of Health Guide for the Care and Use of Laboratory Animals (NIH Pub. No. 85-23, Revised 1996) and also to the EU directive guideline for the care and use of laboratory animals published by the European Union (2010/63/EU) and was approved by the local ethics committee of the University of Szeged. Eight to ten week-old male Wistar rats weighing 300–350 g (Toxicoop Ltd., Budapest, Hungary) were anesthetized intraperitoneally with 60 mg/kg pentobarbital sodium (Euthasol, Produlab Pharma, Raamsdonksveer, The Netherlands). After administration of 500 U/kg heparin through the femoral vein, the heart was isolated and perfused according to Langendorff with oxygenated Krebs-Henseleit buffer at 37°C as previously described (Turan et al., [2006]). […] Heart rate and coronary flow were monitored throughout the perfusion protocol. […]
At the end of the 2-h reperfusion, the right ventricle was removed, hearts were frozen, cut into six 1-mm-thick slices, and incubated in 1% triphenyl-tetrazolium chloride (Sigma-Aldrich; St. Louis, MO) at 37°C to delineate infarcted tissue. Slices were then fixed and quantified by planimetry using Infarctsize™ 2.5 software (Pharmahungary, Szeged, Hungary) (Fekete et al., [2013]). Infarct size was expressed as a percentage of the left ventricle.

The target of assay [2] is MMP-9 (Homo sapiens, UniProt P14780). Put plainly: MMP-9 inhibition (inhibitory profile). Type of assay: biochemical. The settings on record: Table 2. The method, then:
The compounds were measured for MMP-1, 2, 9, 13 to determine their inhibitory profile. Efficiency Index amplifies the two major required effects, selectivity against MMP-1 and the inhibitory activity.

The target of assay [3] is T1, MMP-2 enzyme isolated from rat heart (Rattus norvegicus, UniProt P33436).
T1 construct: we used full-length, active MMP-2 enzymes isolated from healthy young adult rat hearts; from tissue; host or cells: rat heart homogenate (healthy young adult rats)
T1 sequence (P33436 110-662): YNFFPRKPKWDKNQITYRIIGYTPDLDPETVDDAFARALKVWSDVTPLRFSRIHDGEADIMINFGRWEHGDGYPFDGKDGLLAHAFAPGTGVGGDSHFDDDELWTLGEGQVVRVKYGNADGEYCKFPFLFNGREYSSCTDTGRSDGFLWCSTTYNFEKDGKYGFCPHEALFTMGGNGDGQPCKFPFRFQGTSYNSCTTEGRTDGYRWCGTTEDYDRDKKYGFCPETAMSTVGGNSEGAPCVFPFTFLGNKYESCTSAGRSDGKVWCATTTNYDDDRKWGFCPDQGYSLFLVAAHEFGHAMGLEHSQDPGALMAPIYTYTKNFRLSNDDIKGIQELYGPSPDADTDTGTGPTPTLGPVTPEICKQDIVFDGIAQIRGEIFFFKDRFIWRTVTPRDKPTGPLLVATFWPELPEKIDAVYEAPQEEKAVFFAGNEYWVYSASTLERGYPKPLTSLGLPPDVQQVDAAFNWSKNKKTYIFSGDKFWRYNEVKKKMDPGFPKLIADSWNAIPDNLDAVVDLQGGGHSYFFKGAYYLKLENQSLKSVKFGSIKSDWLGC
Put plainly: Gelatin zymography on cardiac MMP-2. The format is biochemical. How it is done:
Gelatin zymography was performed as described previously (Kupai et al., [2010]; Bencsik et al., [2017]). MMP-2 was isolated from rat heart homogenates as follows: 50 μg protein/lane were loaded and separated by electrophoresis under non-reducing conditions on an 8% SDS-polyacrylamide gels copolymerized with 2 mg/ml gelatin from porcine skin (Sigma-Aldrich; St. Louis, MO). After electrophoresis, gels were washed in 2.5% Triton-X 100 with gentle agitation and then incubated for 20 h at 37°C in zymography development buffer (50 mM Tris-HCl, pH 7.5, containing 5 mM CaCl2, 200 mM NaCl) in the presence or abscence of the MMP inhibitor compounds. Zymographic gels were stained in a 0.05% Coomassie Brilliant Blue R-250 solution followed by destaining, and then zymograms were scanned. MMP activity was detected as a colorless transparent zone on a blue background and the clear bands in the gel were quantified by densitometry using the Quantity One software (Bio-Rad, Hercules, CA). The obtained density values were measured and percentage of inhibition values were then calculated.
To confirm the MTS screen results, we tested the potential MMP inhibitor molecules on MMP-2 enzyme isolated from rat heart in vitro. Therefore, we applied the MMPIs at 1 and 100 μM final concentration in the enzyme's development buffer (Table 3).
After the chemical optimization of the novel MMP inhibitor lead candidates, we determined their IC50 values by using gelatin zymography. During zymographic analysis, we used full-length, active MMP-2 enzymes isolated from healthy young adult rat hearts. Subsequently, the cardio-cytoprotective effects of the selected candidates having the lowest IC50 values to MMP-2 were tested in cultured neonatal cardiac myocytes subjected to simulated I/R injury. Cardiac myocyte cell culture assay allowed a relatively high throughput biological efficacy testing (Gorbe et al., [2010]) of the selected lead candidates in several dose ranges at different levels of inhibition of MMP-2 activity.

Broadly, the IC50 is the concentration that inhibits the measured activity by half. For orientation: EC50 means the concentration giving half of the maximal effect. As a reminder, the IC20 is the point of the concentration-response curve where the effect stands at 20%.

Sequence of MMP-9 (P14780 94-707, species assumed): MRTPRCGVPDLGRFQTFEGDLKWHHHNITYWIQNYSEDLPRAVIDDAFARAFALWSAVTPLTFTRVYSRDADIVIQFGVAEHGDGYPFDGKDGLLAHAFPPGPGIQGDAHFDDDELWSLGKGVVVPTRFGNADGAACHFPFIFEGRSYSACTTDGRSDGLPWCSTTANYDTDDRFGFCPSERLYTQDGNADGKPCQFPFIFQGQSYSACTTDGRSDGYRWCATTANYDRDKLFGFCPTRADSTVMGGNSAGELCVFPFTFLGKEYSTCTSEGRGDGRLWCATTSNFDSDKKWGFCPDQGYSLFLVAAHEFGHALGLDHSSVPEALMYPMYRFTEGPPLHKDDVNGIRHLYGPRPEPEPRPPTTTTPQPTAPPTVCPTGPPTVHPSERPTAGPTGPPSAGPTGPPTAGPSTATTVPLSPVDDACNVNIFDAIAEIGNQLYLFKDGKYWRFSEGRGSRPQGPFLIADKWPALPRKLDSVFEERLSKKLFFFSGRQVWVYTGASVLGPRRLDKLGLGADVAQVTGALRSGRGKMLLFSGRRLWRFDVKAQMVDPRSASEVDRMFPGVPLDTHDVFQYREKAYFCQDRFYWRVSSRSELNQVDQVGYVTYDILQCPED

Take `O=C(O)c1c[nH]c(CN(Cc2ccc(F)cc2)Cc2ccc(OCc3ccccc3)cc2)n1` [MMPI-1154]: the myocardial infarct size entry in assay [1] is “reduced myocardial infarct size significanly”. Besides, the IC50 was determined as 13 µM in assay [2] and 2.5 µM in assay [3] (most effective concentration in cell culture experiments, read-out: IC50 value (MMP-2 inhibition)). Besides, the inhibition at 100 µM in assay [3] (100 μM, cardiac MMP-2, gelatin zymography, read-out: Inhibition (%)±SEM at 100 μM final MMP inhibitor concentration) was determined as 100%. The EC50 in assay [3] (concentration labelled EC50 in Supplementary Figure 4, doses calculated according to IC doses in vitro) was 2.5 µM. In assay [3] (concentration used in the ex vivo model, read-out: IC20 value (MMP-2 inhibition)), the IC20 worked out at 1 µM.
